Results from US8158621B2, “Methods of treating or preventing autoimmune diseases with 2,4-pyrimidinediamine compounds” (Rigel Pharmaceuticals, Inc., priority 2002, dated 2012).

Experiments:
[1] = tested on: bone marrow derived mast cells (BMMC); experiment: BMMC high cell density IgE activation: IL-6; type: cell-based, mouse; conditions: High Density section of TABLE 1, BMMC, anti-IgE activation, IL-6; read-out: BMMC anti-IgE IL-6 IC50
In short: (§1)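 Mediator release from sensitized BMMC: after 1 h compound exposure at 37 °C (0.5% DMSO), cells challenged with DNP-BSA for 1 h and early supernatant collected. Cells then recultured 4-5 h in conditioned medium with compound; cytokines IL-6 and TNFα quantified by ELISA.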

[2] = tested on: cultured human mast cells (CHMC); experiment: CHMC low cell density ionomycin activation: tryptase assay; type: cell-based
[3] = tested on: cultured human mast cells (CHMC); experiment: CHMC low cell density IgE activation: tryptase assay; type: cell-based; conditions: Low Density; read-out: CHMC anti-IgE Tryptase
In short: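 CHMC resuspended in pre-warmed MT buffer at 1000-1500 cells/well (donor-dependent) and preincubated 1 hr at 37° C, then stimulated with anti-IgE for 30 min at 37° C; unstimulated wells got MT alone. Supernatant tryptase activity read with tryptase substrate after 30 min at room temperature.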

[4] = tested on: Human Jurkat T-cells (clone N); experiment: Jurkat T-cell activation (anti-TCR, CD69 upregulation); type: cell-based
In short: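 Jurkat cells in RPMI + 5% FBS preincubated with compound 1 h at 37 °C, then stimulated with anti-TCR C305 at 500 ng/ml for 20 h. CD69 surface expression stained with anti-CD69-APC and read by flow cytometry; IC50 versus solvent-only control.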

[5] = tested on: bone marrow derived mast cells (BMMC); experiment: BMMC high cell density IgE activation: LTC4; type: cell-based, mouse; conditions: High Density section of TABLE 1, BMMC, anti-IgE activation, LTC4; read-out: BMMC anti-IgE LTC4 IC50
Description: (§2) After sensitizing, cells are counted, pelleted (1000 rpm, 5-10 minutes), and resuspended at 1-3×10^6 cells/ml in MT buffer. Add 100 ul of cell suspension to each well and 100 ul of compound dilutions. The final vehicle concentration is 0.5% DMSO. Incubate at 37° C. (5% CO2) for 1 hour. After 1 hour of compound treatment, stimulate cells with 6× stimulus (60 ng/ml DNP-BSA). Mix wells with the cells and allow plates to incubate at 37° C. (5% CO2) for one hour. After 1 hour incubation, pellet cells (10 minutes, 1000 RPM) and collect 200 ul per well of the supernatant, being careful not to disturb pellet, and transfer to a clean tube or 96-well plate. Place the supernatant plate on ice. During the 4-5 hour step (see next) perform the hexosiminidase assay. Resuspend cell pellet in 240 ul WEI-conditioned media containing 0.5% DMSO and corresponding concentration of compound. Incubate BMMC cells for 4-5 hours at 37° C. (5% CO2). After incubation, pellet cells (1000 RPM, 10 minutes) and collect 225 ul per well and place in −80° C. until ready to perform ELISAS. ELISAS are performed on appropriately diluted samples (determined empirically for each donor cell population so that the sample measurement falls within the standard curve) following the supplier's instructions.

[6] = tested on: bone marrow derived mast cells (BMMC); experiment: BMMC high cell density IgE activation: histamine; type: cell-based, mouse; conditions: High Density section of TABLE 1, BMMC, anti-IgE activation, histamine; read-out: BMMC anti-IgE histamine IC50
Description: as §2

[7] = tested on: bone marrow derived mast cells (BMMC); experiment: BMMC high cell density IgE activation: hexosaminidase; type: cell-based, mouse
[8] = tested on: bone marrow derived mast cells (BMMC); experiment: BMMC high cell density IgE activation: TNFalpha; type: cell-based, mouse; conditions: High Density section of TABLE 1, BMMC, anti-IgE activation, TNFalpha; read-out: BMMC anti-IgE TNF-alpha IC50
In short: as §1

Jurkat cells [9] = experiment: Jurkat toxicity, Cell Titer Glo assay; type: cell-based, human
Description: Seed 50 μl cells (1×10^6/ml) into each well containing 50 μl compound. […] Shake plates for 1 minute to mix cells and compound. Incubate plates at 37° C. […] Next day, harvest 50 μl cells from each well, add to 50 μl Cell Titer Glo reagent ([…]). Shake plates for 1 minute. Read on luminometer.

[10] = tested on: basophil cells (human peripheral blood); experiment: Basophil anti-IgE activation: histamine release assay; type: cell-based; conditions: basophils, anti-IgE activation, histamine release; read-out: Basophils anti-IgE Histamine IC50
Description: (§3) The basophil activation assay was carried out using whole human peripheral blood from donors allergic to dust mites with the majority of the red blood cells removed by dextran sedimentation. Human peripheral blood was mixed 1:1 with 3% dextran T500 and RBCs were allowed to settle for 20-25min. The upper fraction was diluted with 3 volumes of D-PBS and cells were spun down for 10 min at 1500 rpm, RT. Supernatant was aspirated and cells were washed in an equal volume MT-buffer. Finally, cells were resuspended in MT-buffer containing 0.5% DMSO in the original blood volume. 80 uL cells were mixed with 20 uL compound in the presence of 0.5% DMSO, in triplicate, in a V-bottom 96-well tissue culture plate. A dose range of 8 compound concentrations was tested resulting in a 10-point dose response curve including maximum (stimulated) and minimum (unstimulated) response. […] The cells were stimulated for 30 minutes at 37° C., 5% CO2. The plate was spun for 10 min at 1500 rpm at room temperature and 80 uL the supernatant was harvested for histamine content analysis using the histamine ELISA kit supplied by Immunotech. The ELISA was performed according to supplier's instructions.

[11] = tested on: cultured human mast cells (CHMC); experiment: CHMC low cell density IgE activation: hexosaminidase assay; type: cell-based; conditions: anti-IgE activation, hexosaminidase release, read-out: CHMC anti-IgE Hexos. IC50
Description: (§4) Inhibition of degranulation was measured at both low and high cell density by quantifying the release of the granule specific factors tryptase, histamine and hexosaminidase. Inhibition of release and/or synthesis of lipid mediators was assessed by measuring the release of leukotriene LTC4 and inhibition of release and/or synthesis of cytokines was monitored by quantifying TNF-α, IL-6 and IL-13. Tryptase and hexosaminidase were quantified using fluorogenic substrates as described in their respective examples. Histamine, TNFα, IL-6, IL-13 and LTC4 were quantified using the following commercial ELISA kits: histamine (Immunotech #2015, Beckman Coulter), TNFα (Biosource #KHC3011), IL-6 (Biosource #KMC0061), IL-13 (Biosource #KHC0132) and LTC4 (Cayman Chemical #520211). The protocols of the various assays are provided below.

[12] = tested on: basophil cells (human peripheral blood); experiment: Basophil ionomycin activation: histamine release assay; type: cell-based; conditions: basophils, ionomycin activation, histamine release; read-out: Basophils Ionomycin Histamine IC50
Description: as §3
Assays for ionomycin-induced basophil cell degranulation were carried out as described for the Basophil IgE or Dustmite Activation Assay (Section 7.5.5, supra), with the exception that following incubation with compound, cells were stimulated with 20 μl of 2 μM ionomycin.

[13] = tested on: bone marrow derived mast cells (BMMC); experiment: BMMC high cell density ionomycin activation: hexosaminidase; type: cell-based, mouse; conditions: read-out: BMMC Ionomycin Hexos.
Description: Add 50 uL of BMMC cell supernatant (see above) to the hexoseaminidase substrate, place at 37° C. for 30 minutes and read the plate at 5, 10, 15, and 30 minutes on a spectrophotometer.

[14] = tested on: cultured human mast cells (CHMC); experiment: CHMC low cell density IgE activation: LTC4 assay; type: cell-based; conditions: anti-IgE activation, LTC4 release
In short: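 Cultured human mast cells at low density (1000-1500 per well) rested 1 h at 37° C, then stimulated with anti-IgE for 30 min at 37° C. Supernatant tryptase measured with fluorogenic substrate (30 min, room temperature); LTC4 quantified by ELISA on diluted supernatant.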

[15] = tested on: cultured human mast cells (CHMC); experiment: CHMC low cell density ionomycin activation: hexosaminidase assay; type: cell-based; conditions: hexosaminidase release, read-out: CHMC Ionomycin Hexos. IC50
Description: as §4

B-cell line BJAB [16] = experiment: BJAB (B-cell) toxicity, light scatter; type: cell-based; conditions: read-out: Toxicity BJAB Light Scat.
Description: The B-cell line BJAB was cultured in log phase in RPMI1640+10% heat-inactivated fetal bovine serum, 1× L-glutamine, 1× penicillin, 1× […] and 1× beta-mercaptoethanol at 37° C., 5% CO2. First, BJABs were harvested, spun and resuspended in culture medium to a concentration of 7.7×10^5 cells/mL. 65 uL cells were mixed with 65 uL compound, in duplicate and in the presence of 0.1% DMSO in a V-bottomed 96-well tissue culture plate. Cells were incubated with compound at various dilutions at 37° C., 5% CO2. Toxicity was assessed by flow cytometric analysis of cellular light scatter.

Jurkat cells [17] = experiment: Jurkat (T-cell) toxicity, light scatter; type: cell-based, human; conditions: read-out: Toxicity Jurkat Light Scat.
Description: Dilute Jurkat cells to 2×10^5 cells/ml in complete RPMI (10% heat-inactivated fetal bovine serum) media and incubate at 37° C., 5% CO2 for 18 hours. Add 65 ul cells at 7.7×10^5 cells/ml to a 96-well V-bottom plate (TC-treated, Costar) containing 65 ul 2× compound (final vehicle concentration is 0.5% DMSO, 1.5% MeOH). Mix, incubate plates for 18-24 hr at 37° C., 5% CO2. Toxicity was assessed by flow cytometric analysis of cellular light scatter

[18] = tested on: cultured human mast cells (CHMC); experiment: CHMC high cell density IgE activation: hexos; type: cell-based
[19] = tested on: cultured human mast cells (CHMC); experiment: CHMC high cell density IgE activation: tryptase; type: cell-based
B-cell line BJAB [20] = experiment: BJAB toxicity, Cell Titer Glo assay; type: cell-based
Description: Seed 50 μl cells (1×10^6/ml) into each well containing 50 μl compound. The final vehicle concentration is 0.5% DMSO, 1.5% MeOH. Shake plates for 1 minute to mix cells and compound. Incubate plates at 37° C. (5% CO2) for 18 hours. Next day, harvest 50 μl cells from each well, add to 50 μl Cell Titer Glo reagent ([…]). Shake plates for 1 minute. Read on luminometer.

Syk kinase = biological target: T1, Syk kinase (Homo sapiens, UniProt P43405); experiment: Syk kinase biochemical fluorescence polarization assay; conditions: isolated Syk kinase, fluorescence polarization, 4 uM ATP
T1 construct: purchased Upstate, Lake Placid NY

[21] = tested on: cultured human mast cells (CHMC); experiment: CHMC high cell density IgE activation: TNFalpha; type: cell-based; conditions: read-out: CHMC high density TNF-alpha
In short: (§5)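 IgE-sensitized CHMC at 1-2 ×10^6 cells/ml were preincubated with compound (0.5% DMSO) for 1 h at 37 °C, then stimulated with anti-IgE for 1 h before supernatant collection. Pellets were reincubated with compound for 7 h at 37 °C, and mediators were measured by ELISA on diluted supernatants.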

[22] = tested on: cultured human mast cells (CHMC); experiment: CHMC high cell density IgE activation: LTC4; type: cell-based
In short: as §5

[23] = Low Density, read-out: CHMC Ionomycin Tryptase
[24] = High Density section of TABLE 1, BMMC, anti-IgE activation, hexosaminidase, read-out: BMMC anti-IgE hexos. IC50
[25] = High Density, read-out: BMMC anti-IgE hexos

IC50 [1] [nM]	IC50 [2, 23] [nM]	IC50 [3] [nM]	IC50 [4] [nM]	IC50 [5] [nM]	IC50 [6] [nM]	IC50 [7, 24] [nM]	IC50 [8] [nM]	IC50 [12] [nM]	IC50 [13] [nM]	IC50 [14] [nM]	IC50 [7, 25] [nM]	IC50 [15] [nM]	SMILES	IC50 (Jurkat cells [9]) [nM]	IC50 (B-cell line BJAB [16]) [nM]	IC50 (Jurkat cells [17]) [nM]	further results
< 220	> 10000	149	1840	433	< 220	< 220	220						CC(C)Oc1ccc(Nc2nc(Nc3cccc(OCCO)c3)ncc2F)cc1 [Compound R935156]	4050			
41	> 10000	127	1650	547	85	104	131						OCCOc1cccc(Nc2ncc(F)c(Nc3ccc4c(c3)OCCO4)n2)c1 [Compound R935154]	> 4330			
			10400					> 10000	> 10000	760	900	6400	CCOc1ccc(Nc2nc(Nc3ccc(OC)c(OC)c3)ncc2F)cc1 [Compound R926108]		> 10000	> 10000	IC50 [10]: 950 nM; IC50 [11]: 787 nM
			4380					> 10000	> 10000	800	600	> 10000	Oc1cccc(Nc2ncc(F)c(Nc3ccc4c(c3)OCCO4)n2)c1 [Compound R926210]		> 10000	> 10000	IC50 ([2]; Low Density CHMC, ionomycin activation, tryptase release, read-out: CHMC Ionomycin Tryptase IC50): > 10000 nM; IC50 [10]: 370 nM
			> 10000						5000	1590	1350	6700	CCOc1ccc(Nc2nc(Nc3cccc(O)c3)ncc2F)cc1 [Compound R926146]		> 10000	> 10000	IC50 [11]: 761 nM
	> 10000	930	5370										OCCOc1cccc(Nc2ncc(F)c(Nc3cccc(OCCO)c3)n2)c1 [Compound R935075]	> 4330			IC50 [21]: > 2000 nM; IC50 [18]: 647 nM; IC50 [22]: < 220 nM; IC50 [19]: 1210 nM; IC50 (B-cell line BJAB [20]): > 4330 nM
< 220	> 10000	164	1080	288	< 220	< 220	< 220						Nc1cccc(Nc2ncc(F)c(Nc3ccc4c(c3)OCCO4)n2)c1 [Compound R950207]	> 4330			

SMILES	IC50 [1] [nM]	IC50 [2, 23] [nM]	IC50 [3] [nM]	IC50 [4] [nM]	IC50 [5] [nM]	IC50 [6] [nM]	IC50 [7, 24] [nM]	IC50 [8] [nM]	IC50 [12] [nM]	IC50 [13] [nM]	IC50 [14] [nM]	IC50 [7, 25] [nM]	IC50 [15] [nM]	IC50 (Jurkat cells [9]) [nM]	IC50 (B-cell line BJAB [16]) [nM]	IC50 (Jurkat cells [17]) [nM]	further results
O=C(c1cc2cc(Nc3ncc(F)c(Nc4ccc5c(c4)OCCO5)n3)ccc2o1)N1CCNCC1 [Compound R926501]				1680					> 10000					> 4330			IC50 [18]: > 2000 nM; IC50 [19]: > 2000 nM; IC50 (B-cell line BJAB [20]): > 4330 nM; IC50 (Syk kinase): 193 nM
